Experimental data: the supplement of paper PMC10307832

Legend:
Assay in all cases: relative viability (nuclei count vs DMSO), 5 days (fraction); higher = more cells survive
Dabrafenib + OSI-027 = compound: CC(C)(C)c1nc(-c2cccc(NS(=O)(=O)c3c(F)cccc3F)c2F)c(-c2ccnc(N)n2)s1 [Dabrafenib] + COc1cccc2cc(-c3nc([C@H]4CC[C@H](C(=O)O)CC4)n4ncnc(N)c34)[nH]c12 [OSI-027] (partner 0.5 µM)
In short: (§1)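 Relative viability divides the nuclei count in treated wells by that in vehicle wells. Lung cancer cell lines were seeded in 1536-well plates, dosed by pin tool the next day, and fixed and stained after 5 days in one step with final 0.05% Triton X-100, 1% formaldehyde and 1 ug/ml Hoechst. Dosing was a single drug or a fixed anchor-drug dose plus five library-drug doses (not always all listed) in √10 steps, and values are medians of duplicate plates imaged at 4×.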

VX-702 + Pemetrexed = compound: NC(=O)c1ccc(N(C(N)=O)c2c(F)cccc2F)nc1-c1ccc(F)cc1F [VX-702] + Nc1nc2[nH]cc(CCc3ccc(C(=O)N[C@@H](CCC(=O)O)C(=O)O)cc3)c2c(=O)[nH]1 [Pemetrexed] (partner 0.2 µM)
In short: as §1

VX-702 = compound: NC(=O)c1ccc(N(C(N)=O)c2c(F)cccc2F)nc1-c1ccc(F)cc1F [VX-702]
In short: (§2)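 Lung cancer cell lines in 1536-well plates were kept overnight at 37 °C, then pinned with five library-drug doses (not always all listed) spaced by √10 on vehicle-anchored plates. After 5 days without medium change, cells were fixed, permeabilised and Hoechst-stained in one step, imaged at 4×, and nuclei were counted with MetaXpress. Viability is treated-well nuclei divided by vehicle-well nuclei, taken as the median over plates. Plates passed only with control CV below 25% and at least one doubling.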

Dabrafenib = compound: CC(C)(C)c1nc(-c2cccc(NS(=O)(=O)c3c(F)cccc3F)c2F)c(-c2ccnc(N)n2)s1 [Dabrafenib]
In short: as §2

Row | Cell Line | relative viability (Dabrafenib + OSI-027; first compound 0.003 µM) | relative viability (Dabrafenib + OSI-027; first compound 0.009487 µM) | relative viability (Dabrafenib + OSI-027; first compound 0.03 µM) | relative viability (Dabrafenib + OSI-027; first compound 0.09487 µM) | relative viability (Dabrafenib + OSI-027; first compound 0.3 µM) | relative viability (VX-702 + Pemetrexed; first compound 0.02 µM) | relative viability (VX-702 + Pemetrexed; first compound 0.2 µM) | relative viability (VX-702 + Pemetrexed; first compound 0.6325 µM) | relative viability (VX-702 + Pemetrexed; first compound 2 µM) | relative viability (VX-702; 0.02 µM) | relative viability (VX-702; 0.2 µM) | relative viability (VX-702; 0.6325 µM) | relative viability (VX-702; 2 µM) | relative viability (Dabrafenib; 0.003 µM) | relative viability (Dabrafenib; 0.009487 µM) | relative viability (Dabrafenib; 0.03 µM) | relative viability (Dabrafenib; 0.09487 µM) | relative viability (Dabrafenib; 0.3 µM)
1 | CAL-12T | 0.523 | 0.68 | 0.902 | 0.566 | 0.645 | 0.982 | 1.22 | 1.14 | 1.29 | 0.959 | 0.994 | 1.04 | 1.07 | 0.96 | 1.01 | 1.05 | 0.946 | 1.18
2 | HCC-15 | 0.547 | 0.695 | 0.67 | 0.53 | 0.622 | 0.223 | 0.22 | 0.227 | 0.248 | 0.989 | 0.982 | 1.08 | 1.03 | 0.942 | 1.04 | 1.04 | 0.928 | 0.921
3 | LC-2-ad | – | 1.14 | 0.83 | 0.76 | 0.859 | 0.275 | 0.271 | 0.269 | 0.274 | 1.04 | 1.01 | 1.05 | 1.06 | 0.79 | 1.08 | 1 | 0.892 | 1.06
4 | NCI-H520 | 0.272 | 0.348 | 0.188 | 0.324 | 0.278 | 0.713 | 0.486 | 0.636 | 0.765 | 0.969 | 0.925 | 1.03 | 1.07 | 0.974 | 0.941 | 0.795 | 0.884 | 0.921
5 | LOU-NH91 | 0.488 | 0.801 | 0.666 | 0.7 | 0.75 | 0.383 | 0.366 | 0.385 | 0.412 | 1 | 0.836 | 0.971 | 0.783 | – | 1.07 | 0.905 | 0.935 | 1.09
6 | NCI-H1355 | – | 0.477 | 0.34 | 0.416 | 0.44 | 1.05 | 1.01 | 1.02 | 1.09 | 1.07 | 0.997 | 1.02 | 1.08 | – | 0.986 | 0.986 | 0.739 | 1.04
7 | LCLC-97TM1 | 0.308 | 0.535 | 0.683 | 0.237 | 0.237 | 0.167 | 0.171 | 0.141 | 0.193 | 0.938 | 0.982 | 0.996 | 0.937 | – | 0.914 | 1.01 | 0.508 | 0.756
8 | LCLC-103H | 0.4 | 0.502 | 0.46 | 0.51 | 0.461 | 0.503 | 0.445 | 0.469 | 0.469 | 0.98 | 0.999 | 0.952 | 1.13 | 0.883 | 1.11 | 0.919 | 1.01 | 1.07
9 | NCI-H1792 | – | 0.749 | 0.618 | 0.737 | 0.753 | 0.815 | 0.777 | 0.881 | 0.862 | 0.763 | 0.87 | 0.866 | 1.05 | – | 0.915 | 0.877 | 0.679 | 0.806
10 | LK-2 | 0.174 | 0.238 | 0.155 | 0.248 | 0.206 | 0.277 | 0.272 | 0.236 | 0.247 | 1.02 | 0.84 | 0.811 | 1.04 | 0.975 | 1.04 | – | 0.913 | 1.05
11 | RERF-LC-KJ | 0.565 | 0.767 | 0.615 | 0.68 | 0.731 | 0.504 | 0.6 | 0.484 | 0.454 | 0.989 | 1.03 | 1.01 | 1.03 | 1 | 1.15 | 0.969 | 0.986 | 1.1
12 | ChaGo-K-1 | 0.209 | 0.53 | 0.502 | 0.504 | 0.651 | 0.249 | 0.257 | 0.269 | 0.26 | 1.03 | 0.993 | 0.994 | 1.02 | 0.787 | 0.951 | 0.876 | 0.912 | 1.01
13 | NCI-H1395 | 0.377 | 0.692 | 0.594 | 0.583 | 0.589 | 0.864 | 0.851 | 0.831 | 1.01 | 0.971 | 0.909 | 0.97 | 1.03 | – | 0.971 | 0.854 | 0.774 | 0.788
14 | LU99A | 0.282 | 0.307 | 0.29 | 0.339 | 0.268 | 0.173 | 0.164 | 0.184 | 0.16 | 1.05 | 0.912 | 1.02 | 0.781 | 0.968 | 1.06 | 0.917 | 0.88 | 0.801
15 | NCI-H522 | – | 0.761 | 0.642 | 0.714 | 0.757 | 1.08 | 0.891 | 0.971 | 0.999 | 0.989 | 0.982 | 0.928 | 0.992 | – | 1.2 | 1 | 0.97 | 1.07
16 | SK-MES-1 | 0.254 | 0.663 | 0.552 | 0.495 | 0.23 | 0.936 | 0.89 | 0.891 | 0.979 | 0.998 | 0.966 | 0.944 | 0.999 | 0.81 | 1.08 | 1.03 | 0.954 | 0.934

Row | Cell Line | relative viability (Dabrafenib + OSI-027; first compound 0.003 µM) | relative viability (Dabrafenib + OSI-027; first compound 0.009487 µM) | relative viability (Dabrafenib + OSI-027; first compound 0.03 µM) | relative viability (Dabrafenib + OSI-027; first compound 0.09487 µM) | relative viability (Dabrafenib + OSI-027; first compound 0.3 µM) | relative viability (VX-702 + Pemetrexed; first compound 0.02 µM) | relative viability (VX-702 + Pemetrexed; first compound 0.2 µM) | relative viability (VX-702 + Pemetrexed; first compound 0.6325 µM) | relative viability (VX-702 + Pemetrexed; first compound 2 µM) | relative viability (VX-702; 0.02 µM) | relative viability (VX-702; 0.2 µM) | relative viability (VX-702; 0.6325 µM) | relative viability (VX-702; 2 µM) | relative viability (Dabrafenib; 0.003 µM) | relative viability (Dabrafenib; 0.009487 µM) | relative viability (Dabrafenib; 0.03 µM) | relative viability (Dabrafenib; 0.09487 µM) | relative viability (Dabrafenib; 0.3 µM)
17 | NCI-H322M | – | 0.545 | 0.503 | 0.515 | 0.448 | 0.61 | 0.611 | 0.633 | 0.578 | 0.979 | 0.888 | 1.01 | 1.02 | – | 1.14 | – | 0.943 | 0.9
18 | NCI-H358 | 0.486 | 0.923 | 0.74 | 0.576 | 0.655 | 0.176 | 0.172 | 0.168 | 0.173 | 0.965 | 0.857 | 0.916 | 1.1 | – | 1.14 | 0.932 | 1.03 | 1.17
19 | EMC-BAC-2 | 0.359 | 0.376 | 0.301 | 0.295 | 0.329 | 0.472 | 0.436 | 0.407 | 0.416 | 1 | 0.943 | 0.98 | 0.842 | – | 1.04 | 0.706 | 0.701 | 0.751
20 | HCC-78 | – | 0.36 | 0.334 | 0.354 | 0.38 | 0.874 | 0.883 | 0.901 | 0.889 | 0.947 | 0.878 | 0.98 | 1.07 | – | 1.03 | 0.932 | 0.816 | 1.05
21 | NCI-H2085 | 0.355 | 1.06 | 0.675 | 0.616 | 0.859 | 0.82 | 0.957 | 0.949 | 0.852 | 1.06 | 1.05 | 1 | 0.99 | 0.846 | 1.06 | 1 | 0.999 | 1.09
22 | NCI-H441 | – | 0.465 | 0.565 | 0.438 | 0.352 | 0.24 | 0.233 | 0.273 | 0.238 | 1.14 | 0.952 | 0.934 | 0.992 | – | 0.96 | 1.01 | 0.51 | 0.766
23 | NCI-H1975 | 0.657 | 0.728 | 0.805 | 0.535 | 0.581 | 0.312 | 0.296 | 0.301 | 0.287 | 0.97 | 0.923 | 1.08 | 1.22 | 0.936 | 0.982 | 0.925 | 0.778 | 0.854
24 | COR-L23 | 0.768 | 0.803 | 0.732 | 0.6 | 0.61 | 0.203 | 0.183 | 0.21 | 0.23 | 1.17 | 1.05 | 1.16 | 1.21 | 0.976 | 1 | 0.968 | 0.93 | 0.998
25 | NCI-H460 | 0.641 | 0.651 | 0.629 | 0.591 | 0.534 | 0.0627 | 0.0509 | 0.055 | 0.057 | 1.02 | 0.95 | 1.06 | 0.989 | 0.965 | 0.954 | 0.919 | 0.968 | 0.985
26 | NCI-H838 | 0.339 | 0.483 | 0.388 | 0.405 | 0.412 | 0.234 | 0.24 | 0.254 | 0.236 | 0.968 | 0.948 | 0.984 | 1.07 | 0.966 | 1.07 | 0.889 | 0.896 | 1.05
27 | NCI-H2087 | – | 0.541 | 0.682 | 0.622 | 0.454 | 0.703 | 0.657 | 0.681 | 0.656 | 1.17 | 1.01 | 0.997 | 1.08 | – | 1.08 | 0.853 | 0.687 | 0.898
28 | NCI-H596 | – | 0.976 | 0.63 | 0.658 | 0.886 | 0.535 | 0.455 | 0.567 | 0.534 | 1.04 | 0.829 | 1.02 | 1.07 | – | 1.13 | 0.768 | 1.03 | 1.1
29 | HCC-827 | 0.586 | 0.955 | 0.744 | – | 0.657 | 0.244 | 0.252 | 0.287 | 0.18 | 1.03 | 1.08 | 1.09 | 0.647 | 0.916 | 1.08 | 0.996 | – | 1.02
30 | NCI-H1755 | 0.668 | 0.672 | 0.591 | 0.661 | 0.701 | 0.473 | 0.404 | 0.384 | 0.378 | 1.01 | 1.03 | 1.1 | 0.998 | 0.99 | 1.03 | 0.875 | 0.94 | 0.971
31 | SK-LU-1 | – | 0.366 | 0.217 | 0.285 | 0.227 | 1.01 | 0.965 | 0.936 | 1.04 | 1.15 | 1.04 | 1.1 | 1.17 | – | 1.03 | 0.661 | 0.681 | 0.762
